Literature values in publication PMC3090270 (Structure (London, England : 1993), 2010).

Legend:
RI subunits = conditions: ref Huang et al., 1997b (D-AKAP1), 1997a (D-AKAP2), Reinton et al., 2000 (AKAP220), Gronholm et al., 2003 (Merlin), Li et al., 2001 (Pap7)
cardiac myocytes = conditions: H2O2 treatment, ref Brennan et al., 2006

| binding to RI subunits (dual-specific) (RI subunits) | Compound | disulfide formation in RIα D/D (cardiac myocytes) | nuclear localization of PKA (cardiac myocytes) |
| --- | --- | --- | --- |
| bind RI subunits | AKAP220: dual-specific AKAP |  |  |
|  | OO [H2O2] | increased disulfide bond formation | nuclear localization of PKA |
